{"source": "patent US20070027136A1", "about": "“Formulations of anthraquinone derivatives” (priority 2003, published 2007)", "assay": "AQMN content before and after freeze drying", "assay_type": "physicochemical", "details": "40 mg/ml, 10 mM sodium phosphate buffer pH 7.0", "experimental": "Formulated AQ4N material was prepared at 40 mg/ml in 10 mM sodium phosphate buffer at pH 7.0. A portion of this solution was filled into ampoules and the remained into vials and freeze dried according to the cycle as specified in Tables 9 and 10.\nThe AQMN content of the samples before and after freeze drying (ampoule fill and vial fill, respectively) were measured as shown in Table 11.", "data": [{"smiles": "C[N+](C)([O-])CCNc1ccc(NCC[N+](C)(C)[O-])c2c1C(=O)c1c(O)ccc(O)c1C2=O", "note": "[AQ4N raw material]", "values": [{"measurement": "AQMN content (% peak area w.r.t. std.)", "value": 22.6, "unit": "%"}]}]}
